Measured values: ChEMBL document CHEMBL4118109, “A combination of 19F NMR and surface plasmon resonance for site-specific hit selection and validation of fragment molecules that bind to the ATP-binding site of a kinase” (Bioorg Med Chem, 2018)
Calls of active or inactive are those of the source. The rule behind the calls is not given here.

Key:
[1] = target: T1, Mitogen-activated protein kinase 1 (Homo sapiens, UniProt P28482); test: Binding affinity to ATP-binding site of ERK2 (unknown origin) assessed as reduction in signal intensity in absence of competitor by 19F NMR spectroscopy; design: concentration or dose not given beside the values
T1 sequence (P28482 whole entry): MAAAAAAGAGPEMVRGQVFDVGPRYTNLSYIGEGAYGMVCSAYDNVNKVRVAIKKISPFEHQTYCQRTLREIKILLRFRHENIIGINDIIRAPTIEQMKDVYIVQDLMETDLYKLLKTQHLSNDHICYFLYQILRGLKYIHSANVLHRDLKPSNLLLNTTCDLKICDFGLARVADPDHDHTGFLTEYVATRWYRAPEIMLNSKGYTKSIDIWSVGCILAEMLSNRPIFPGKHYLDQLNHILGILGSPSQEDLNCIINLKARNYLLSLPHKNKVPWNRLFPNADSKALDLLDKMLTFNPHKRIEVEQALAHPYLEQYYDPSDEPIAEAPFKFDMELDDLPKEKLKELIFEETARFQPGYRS

[2] = target: T1, Mitogen-activated protein kinase 1; test: Binding affinity to ATP-binding site of ERK2 (unknown origin) assessed as reduction in signal intensity in presence of L100919 by competitive 19F NMR spectroscopy; design: concentration or dose not given beside the values
[3] = target: T1, Mitogen-activated protein kinase 1; test: Binding affinity to ATP-binding site of ERK2 (unknown origin) assessed as reduction in signal intensity by 19F NMR spectroscopy; design: concentration or dose not given beside the values
[4] = target: T1, Mitogen-activated protein kinase 1; test: Binding affinity to ATP-binding site of ERK2 (unknown origin) assessed as reduction in signal intensity in presence of […] by competitive 19F NMR spectroscopy; design: concentration or dose not given beside the values
[5] = target: T1, Mitogen-activated protein kinase 1; test: Binding affinity to ATP-binding site of ERK2 (unknown origin) by surface plasmon resonance method
[6] = target: T1, Mitogen-activated protein kinase 1; test: Binding affinity to ATP-binding site of ERK2 (unknown origin) assessed as reduction in signal intensity in presence of L100919 at 1 mM by competitive surface plasmon resonance method; design: scale not given: the % may be the effect or the level left
[7] = target: T1, Mitogen-activated protein kinase 1; test: Binding affinity to ATP-binding site of ERK2 (unknown origin) assessed as reduction in signal intensity in presence of FR180204 at 1 mM by competitive surface plasmon resonance method; design: scale not given: the % may be the effect or the level left
[8] = target: T1, Mitogen-activated protein kinase 1; test: Binding affinity to ATP-binding site of ERK2 (unknown origin) by isothermal titration calorimetry

Row | Compound | Activity [1] [%] | Activity [2] [%] | Activity [3] | Activity [4] [%] | Kd [5] [µM] | Activity [6] [%] | Activity [7] [%] | Kd [8] [µM]
1 | COCCCNc1ccc(F)cc1[N+](=O)[O-] | 15 | 14 | 29% | 10 |  |  |  | 
2 | O=C1c2cccc(F)c2CN1[C@H]1CCCNC1 | 22 | 8 | 32% | -1 | > 1000 | 26 | 31 | 
3 | N[C@H]1CC[C@H](N2Cc3c(F)cccc3C2=O)CC1 | 9 |  | 41% |  | 495 | 12 | 15 | 
4 | N[C@H]1CC[C@H](N2Cc3cc(F)ccc3C2=O)CC1 |  |  | inactive |  |  |  |  | 
5 | NC1CCN(c2cccc(F)c2[N+](=O)[O-])CC1 | 10 |  | 39% |  | > 1000 |  |  | 
6 | Fc1ccc2[nH]cc(CC3CCOCC3)c2c1 | 30 | 20 | 28% | 19 | 929 |  |  | 410
7 | Fc1ccc2[nH]cc(C3CCOCC3)c2c1 | 16 | 14 | 14% | 10 | > 1000 | 10 |  | 
8 | FC(F)(F)c1ccnc(NC2CCNCC2)c1 | 9 |  | 11% |  | 989 |  | 20 | 
9 | Fc1ccc2c(CC3CCOCC3)c[nH]c2c1 | 24 | 23 | 36% | 22 | > 1000 |  | 25 | 
10 | Fc1cccc2c1CC1(CCOCC1)CN2 | 20 | 16 | 29% | 14 |  |  |  | 
11 | Fc1cccc(-c2nnc3ccc(Br)cn23)c1 | 49 | 20 | 54% | 16 | > 1000 |  | 12 | 
12 | Fc1ccc2[nH]cc(C3CCCNC3)c2c1 (centres undefined) | 20 | 9 | 10% | 9 | > 1000 |  |  | 
13 | CC(C)(C)OC(=O)N1CCC2(CC1)C(=O)Nc1ccc(F)cc12 | 45 | 15 | 39% | 13 |  |  |  | 
14 | O=C1c2ccc(F)cc2CN1[C@H]1CCCNC1 | 67 | 8 | 66% | 2 | > 1000 |  |  | 
15 | Nc1c(F)cccc1N1CCCCC1 | 17 | 12 | 31% | 7 |  | 17 | 10 | 
16 | O=C1c2ccc(F)cc2CN1C1CCNCC1 | 7 |  | 13% |  | > 1000 |  |  | 
17 | CC(C)(C)OC(=O)N[C@H]1CCN(c2ncccc2[N+](=O)[O-])C1 | 2 |  | 20% |  | > 1000 |  |  | 

Other lines, results leading:

Row | Activity [1] [%] | Activity [2] [%] | Activity [3] | Activity [4] [%] | Kd [5] [µM] | Activity [6] [%] | Activity [7] [%] | Kd [8] [µM] | Compound
18 | 26 | 5 | 40% | 7 | > 1000 |  | 14 |  | Nc1cnc(Nc2ccc(C(F)(F)F)cc2)nc1
19 | 9 |  | 26% |  | > 1000 |  |  |  | CC(C)(C)OC(=O)N1CCC(CN)(Cc2cccc(C(F)(F)F)c2)CC1
20 | 0 |  | 32% |  |  |  |  |  | CC(C)(C)OC(=O)N1CCC(CN)(Cc2ccc(C(F)(F)F)cc2)CC1
21 | 22 | 5 | 33% | -4 |  |  |  |  | FC(F)(F)c1cnn2cc(Br)cnc12
22 | -12 |  | 33% |  |  | 19 | 23 |  | Nc1cnc2c(C(F)(F)F)cnn2c1
23 |  |  | inactive |  |  |  |  |  | NCc1cn(Cc2ccccc2F)cn1
24 | 30 | 25 | 26% | 23 | > 1000 |  |  |  | CC(C)(C)OC(=O)N1CCC(Cc2cccc(C(F)(F)F)c2)(C(=O)O)CC1
25 | 26 | 24 | 43% | 15 | > 1000 |  |  |  | Nc1ccc2nc(-c3ccc(F)cc3)nn2c1
26 |  |  | inactive |  | > 1000 |  |  |  | NCc1cn(Cc2ccccc2C(F)(F)F)cn1
27 |  |  |  |  | > 1000 | 17 |  |  | CCOc1cc(N)cc(C(F)(F)F)c1
28 | 35 | 24 | 47% | 17 | > 1000 | 12 | 14 |  | O=C(O)c1ccc2nc(-c3ccccc3F)nn2c1
